The series in a line: Human HepG2 cell viability assay in 384 well format. The format is toxicity, cell-based. More on the design: dose 125 nL, time 70.5 hour; cytotoxicity at 70.5 h: concentration not given beside the values. Conditions: HepG2 cells, read-out: Inhibition.

Molecules are shown by their SMILES.

On to `CCOC(C(=O)N1CCn2c(C)nnc2C1)c1ccccc1` (stereo not given), for which the cytotoxicity at 70.5 h is -11.7%.

With `Cc1nnc2n1CCN(C(=O)C(OC1CCCC1)c1ccccc1)C2` (stereo not given), the cytotoxicity at 70.5 h is -1.74%.

Take `CC(C)(O)CN1CCN(C(=O)C2CSc3ccccc3O2)CC1` (stereo not given): the cytotoxicity at 70.5 h was -14.7%.

With `Cc1noc(C2CCN(C(C)c3nc(C(C)(C)C)no3)CC2)n1` (stereo not given), the cytotoxicity at 70.5 h is -14.9%.

As to `CC(C)NC(=O)C1CCN(Cn2ccc(-c3ccc(F)cc3)n2)CC1`, the cytotoxicity at 70.5 h came out at 4%.

Take `N#CCCN(c1ccc(F)cc1)S(=O)(=O)CC1CCCCO1` (stereo not given): the cytotoxicity at 70.5 h is -1.6%.

As to `Cc1cccc(-c2c[nH]c(C3CCCN3C(=O)Cn3cc(C)cn3)n2)c1` (stereo not given), the cytotoxicity at 70.5 h was found to be 6.62%.

On to `N#CCCN(c1ccccc1)S(=O)(=O)CC1CCCCO1` (stereo not given), for which the cytotoxicity at 70.5 h was -9.85%.

Turning to `CCC(NC(=O)c1ccc2[nH]ccc2c1)C(=O)N1CCOCC1` (stereo not given), the cytotoxicity at 70.5 h stood at 6.49%.

On to `O=C(NC1CCN(c2ncccn2)CC1)c1cc2c(cc1O)CCCC2`, for which the cytotoxicity at 70.5 h was found to be 6.37%.

Regarding `CC1CN(C(=O)c2cc[nH]c(=O)c2)c2ccccc21` (stereo not given), the cytotoxicity at 70.5 h is -12.3%.

Regarding `CCCNC(=O)CCc1ccnc2ccccc12`, the cytotoxicity at 70.5 h was -14%.

For the compound `CCOC(C)c1nc(Cn2cc(C)cn2)cs1` (stereo not given), the cytotoxicity at 70.5 h turned out to be 9.54%.

As to `CCOC(C)c1nc(Cn2cccn2)cs1` (stereo not given), the cytotoxicity at 70.5 h is -8.39%.

As to `CCOC(C)c1nc(Cn2cc(-n3cccc3)cn2)cs1` (stereo not given), the cytotoxicity at 70.5 h is -10.1%.

`CC(CN(C)C(=O)c1cn(C)nc1-c1ccc(F)cc1F)C(=O)O` (stereo not given): the cytotoxicity at 70.5 h is -1.61%.

On to `CC(=O)N1CCC(NS(=O)(=O)c2cccnc2)CC1`, for which the cytotoxicity at 70.5 h is 8%.

Turning to `Cc1ccc(OCC(O)CN(C)CC(=O)Nc2cc(C)on2)c(C)c1` (stereo not given), the cytotoxicity at 70.5 h turned out to be 10.1%.

On to `COCC(C)N(C)C(=O)NC1CCN(c2ncccn2)CC1` (stereo not given), for which the cytotoxicity at 70.5 h came out at 7.61%.

For `Cc1ccc2cc(C(=O)NCCN3CCS(=O)(=O)CC3)c(C)nc2c1`, the cytotoxicity at 70.5 h was -15.9%.

Turning to `CN(C)C(=O)CCCS(=O)(=O)Cc1cc(Cl)c2c(c1)OCCO2`, the cytotoxicity at 70.5 h is -4.96%.

Regarding `CCOCCNC(=O)C(CCSC)NC(=O)c1ccc2ccccc2n1` (stereo not given), the cytotoxicity at 70.5 h worked out at 5.06%.

For the compound `CSCCC(NC(=O)c1ccc2ccccc2n1)C(=O)NC1CC1` (stereo not given), the cytotoxicity at 70.5 h was -8.01%.

Regarding `COc1ccnc(NC2CCN(CC(=O)N3CCCC3)CC2)n1`, the cytotoxicity at 70.5 h is -4.69%.

Turning to `Cc1ccc(OCC(O)CN(C)CC(=O)NC(C)C)c(C)c1` (stereo not given), the cytotoxicity at 70.5 h was 3.84%.

As for `O=C(CN1CCC(Nc2ncccn2)CC1)Nc1ccccc1`, the cytotoxicity at 70.5 h is -5.9%.

Turning to `Cn1cc(C(=O)OCC(N)=O)c(-c2ccc(F)cc2F)n1`, the cytotoxicity at 70.5 h is -7.24%.

As to `O=C1CCN(C(=O)CCc2cc(Br)cs2)CCN1`, the cytotoxicity at 70.5 h was -10.5%.

For the compound `CN(C)C1CCN(C(=O)CCc2cc(Br)cs2)CC1`, the cytotoxicity at 70.5 h was -0.796%.

Regarding `Cc1nccn1-c1ccc(CNC(=O)c2ccc[nH]2)cn1`, the cytotoxicity at 70.5 h was -6.51%.

Turning to `CN(C)c1nccc(N(C)C2CCOCC2)n1`, the cytotoxicity at 70.5 h is -2.99%.

As for `CS(=O)(=O)CCCNC1(c2cccc(Cl)c2)CCCC1`, the cytotoxicity at 70.5 h was -5.23%.

Regarding `Cc1nnc(SCCC(=O)N(C)Cc2ccc(F)cc2F)[nH]1`, the cytotoxicity at 70.5 h was found to be 4.62%.

In the case of `Cc1nnc(SCCC(=O)N(C)Cc2ccc(F)cc2Cl)[nH]1`, the cytotoxicity at 70.5 h was -4.47%.

Turning to `CCCc1nc(C(C)(C)NC(=O)c2ccnn2C)no1`, the cytotoxicity at 70.5 h was -2.57%.

As for `CCN(Cc1csc(CS(C)(=O)=O)n1)c1cccc(CO)c1`, the cytotoxicity at 70.5 h is -6.41%.

`CS(=O)(=O)CCCNC1(c2cccc(F)c2)CC1`: the cytotoxicity at 70.5 h is -7.6%.

`CC(c1ccccc1)N(C)C(=O)CNCCn1cccn1` (stereo not given): the cytotoxicity at 70.5 h is -10.3%.

For the compound `CN(C)c1cc(CNC(=O)NCC2(C)CCCS2)ccn1` (stereo not given), the cytotoxicity at 70.5 h was determined as 10.1%.

`O=C(Nc1ccnn1Cc1ccc(Cl)cc1)C1CCS(=O)(=O)C1` (stereo not given): the cytotoxicity at 70.5 h is -8.12%.

As to `CS(=O)(=O)c1ccc(NCCC2CCCO2)c(S(C)(=O)=O)c1` (stereo not given), the cytotoxicity at 70.5 h was -16.8%.

`CSCC(=O)NS(=O)(=O)c1ccc(C#N)c(C(F)(F)F)c1`: the cytotoxicity at 70.5 h is -8.4%.

`CS(=O)(=O)c1cc(S(N)(=O)=O)ccc1NCC1CCCO1` (stereo not given): the cytotoxicity at 70.5 h was -3.22%.

As for `COc1ccccc1C(C)NC(=O)NCCC(=O)NC1CCCCC1` (stereo not given), the cytotoxicity at 70.5 h is -16.1%.

Take `N#Cc1c(F)cccc1N1CCCC(C(=O)Nc2nccs2)C1` (stereo not given): the cytotoxicity at 70.5 h is -19.5%.

In the case of `CC(=O)N1CCC(NC(=O)c2ccc3c(c2O)OC(C)(C)C3)CC1`, the cytotoxicity at 70.5 h is -12.2%.

Consider `CCCNC(=O)NC(=O)CNc1c(F)cccc1N1CCCC1`, for which the cytotoxicity at 70.5 h was -17.8%.

On to `CC(C)COC1CCN(S(=O)(=O)Cc2cccc(F)c2)CC1`, for which the cytotoxicity at 70.5 h is -14.2%.

For `COc1ccnc(N2CCN(Cc3nc(-c4ccoc4)no3)CC2)c1`, the cytotoxicity at 70.5 h was -0.129%.

As to `N#CC1(NC(=O)c2ccc(-c3nc(C4CC4)n[nH]3)cc2)CCSC1` (stereo not given), the cytotoxicity at 70.5 h is -18.6%.

With `O=C(Nc1cccnn1)NC(CCCO)c1ccccc1` (stereo not given), the cytotoxicity at 70.5 h was -14.5%.

For the compound `N#CC1(NC(=O)c2ccc(-c3nc(C4CC4)n[nH]3)cc2)CCC1`, the cytotoxicity at 70.5 h is -16.7%.

`N#Cc1cc(F)ccc1Cn1cnc(C2CCC2)cc1=O`: the cytotoxicity at 70.5 h worked out at 1.8%.

Consider `COCC1CCCN(C(=O)c2ccc(NC(=O)CC(C)C)c(C)c2)C1` (stereo not given), for which the cytotoxicity at 70.5 h was -17.4%.

Take `Cc1ccc(CN(C)C(=O)c2cnsn2)cc1`: the cytotoxicity at 70.5 h was 4.93%.

For `COCCN1CCN(Cc2nc(-c3ccoc3)no2)CC1`, the cytotoxicity at 70.5 h is -4.32%.

As for `Cc1cc(NC(=O)C(C)N2CCN(c3ccc(C#N)cc3F)CC2)no1` (stereo not given), the cytotoxicity at 70.5 h was -11.7%.

`CC(C)(C)c1nc(NS(=O)(=O)c2ccc(F)cc2)no1`: the cytotoxicity at 70.5 h is -17.2%.

On to `CCOCC(=O)NCCc1ccc(I)s1`, for which the cytotoxicity at 70.5 h came to 18.6%.

Consider `Cc1cc(C(=O)N2CCCC2)ccc1NCCOCC(F)(F)F`, for which the cytotoxicity at 70.5 h is 9.16%.

As for `CC(CO)(NC(=O)Nc1nnc(C(F)F)s1)C1CC1` (stereo not given), the cytotoxicity at 70.5 h came to 4%.

Turning to `Cc1cccc2c(CCNS(=O)(=O)C3CCOC3)c[nH]c12` (stereo not given), the cytotoxicity at 70.5 h came to 12.8%.

For `Cc1c(C(=O)NCCC(=O)N2CCOCC2)oc2c(C)cccc12`, the cytotoxicity at 70.5 h is -12.9%.

For the compound `COC(=O)CN(Cc1ccccc1C)C(=O)CCNC(=O)C(C)(C)C`, the cytotoxicity at 70.5 h was -6.72%.

As for `CC(C)(C)C(O)CN1CCN(CC(=O)NCC(F)(F)F)CC1` (stereo not given), the cytotoxicity at 70.5 h stood at 13.1%.

Take `CC(Nc1ccc(CC(=O)N(C)C)cc1)C(=O)N(C)CCC#N` (stereo not given): the cytotoxicity at 70.5 h was -12.3%.

Regarding `CC(CO)(NC(=O)Nc1nncs1)C1CCCCC1` (stereo not given), the cytotoxicity at 70.5 h stood at 2.4%.

On to `Cc1nncn1CCNC(=O)C(C)(C)c1cccc(C(F)(F)F)c1`, for which the cytotoxicity at 70.5 h is -9.3%.

For the compound `Cc1nncn1CCNC(=O)C(C)(C)c1cccc(F)c1`, the cytotoxicity at 70.5 h was -7.47%.

For `O=S(=O)(NCCc1c[nH]c2cc(F)ccc12)C1CCOC1` (stereo not given), the cytotoxicity at 70.5 h is 0.583%.

In the case of `CN1CCN(Cc2cccc(NCc3ncc[nH]3)c2)CC1`, the cytotoxicity at 70.5 h stood at 8%.

Consider `Cc1cc(-c2nc(C3(NC(=O)OC(C)(C)C)CCC3)no2)on1`, for which the cytotoxicity at 70.5 h was -5.47%.

On to `Cc1nncn1CCNC(=O)C(C)(C)c1cccc(Cl)c1`, for which the cytotoxicity at 70.5 h was -8.68%.

Regarding `CCc1nc2n(n1)CCCC2NC(=O)Nc1ccc(SC)c(F)c1` (stereo not given), the cytotoxicity at 70.5 h was -6.66%.

Regarding `CCN(C)CC1CCN(C(=O)Nc2ccc(-c3cc[nH]n3)cc2)C1` (stereo not given), the cytotoxicity at 70.5 h was 11.5%.

With `Fc1cccc(CCN(c2ccc3nnnn3n2)C2CC2)c1`, the cytotoxicity at 70.5 h is -17.4%.

Consider `CC(C)COCC(NC(=O)Cc1ccn[nH]1)c1ccco1` (stereo not given), for which the cytotoxicity at 70.5 h was -6.61%.

`COc1cc2ccn(CCS(C)(=O)=O)c(=O)c2cc1F`: the cytotoxicity at 70.5 h is -2.4%.

For the compound `Cc1ncsc1CN1C[C@@H]2CN(S(C)(=O)=O)CCO[C@@H]2C1`, the cytotoxicity at 70.5 h was -7.53%.

Regarding `O=C(C1CCOC1)N1CCC2(CC1)Cc1ccccc1CNC2=O` (stereo not given), the cytotoxicity at 70.5 h was -9.03%.

Regarding `O=C1NCCO[C@H]2CN(C(=O)Cc3cccs3)CC[C@@H]12`, the cytotoxicity at 70.5 h was -7.13%.

`Cn1cc(-c2ncc3c(c2C(=O)O)CCN(CC2CCOC2)C3)cn1` (stereo not given): the cytotoxicity at 70.5 h is -3.12%.

For the compound `Cc1ccc(NC(=O)N2CCC3(CCC(C(=O)N(C)C)O3)CC2)cc1` (stereo not given), the cytotoxicity at 70.5 h is -4.12%.

Regarding `Cc1nc(-c2nc(C(=O)N(C)C)c3ccccn23)cn1C(C)C`, the cytotoxicity at 70.5 h was -8.88%.

Turning to `Cc1nnc([C@@]23CCO[C@@H]2CCN(Cc2nccs2)C3)o1`, the cytotoxicity at 70.5 h was -9.1%.

With `Cc1nc(-c2nc(C(=O)NC3CC3)c3ccccn23)cn1C(C)C`, the cytotoxicity at 70.5 h was -2.95%.

For the compound `Cc1ccc(CN2CCCC3(CCCN3S(C)(=O)=O)C2)s1` (stereo not given), the cytotoxicity at 70.5 h is -8%.

As for `Cc1cnc(N2CCc3cc(C(=O)O)c(N(C)C)nc3CC2)nc1`, the cytotoxicity at 70.5 h was -7.94%.

In the case of `Cc1noc([C@@]23CCO[C@@H]2CCN(Cc2scnc2C)C3)n1`, the cytotoxicity at 70.5 h is -13.1%.

With `Cc1ccsc1C(=O)N1CCC2(CC1)C(=O)N(C)CCN2CC1CC1`, the cytotoxicity at 70.5 h was -12.8%.

`CNC(=O)c1cc2c(nc1N(C)C)CCN(c1ncc(F)cn1)CC2`: the cytotoxicity at 70.5 h was -13.5%.

As to `COc1ccc(S(=O)(=O)N2CCN(C)c3ncccc3C2)cc1`, the cytotoxicity at 70.5 h is -5.97%.

As to `CCOCCN1C[C@H](C(=O)Nc2cccnc2)[C@@H]2CCO[C@@H]2C1`, the cytotoxicity at 70.5 h was -4.15%.

Turning to `Cc1cccc(CN2CC[C@@H]3[C@@H]2CCN3Cc2cccs2)n1`, the cytotoxicity at 70.5 h was -5.52%.

For the compound `Cc1ccc(C(=O)N2C[C@H](N3CCOCC3)[C@@H]3OCCC[C@@H]32)cn1`, the cytotoxicity at 70.5 h is -9.11%.

Consider `Cc1cccc(CN2CC[C@@H]3[C@@H]2CCN3C(=O)Cc2cccs2)n1`, for which the cytotoxicity at 70.5 h was -11.7%.

As to `Cc1ccc(CN2CCn3c(COc4cccnc4)cnc3C2C)o1` (stereo not given), the cytotoxicity at 70.5 h is -7.88%.

Take `Cc1ccsc1CN1CCn2c(COc3cccnc3)cnc2C1C` (stereo not given): the cytotoxicity at 70.5 h was -9.93%.

In the case of `CC1c2ncc(COc3cccnc3)n2CCN1Cc1cnn(C)c1` (stereo not given), the cytotoxicity at 70.5 h was -9.85%.

With `c1ccc(CN2Cc3[nH]nc(COc4cccnc4)c3C2)nc1`, the cytotoxicity at 70.5 h was -7.63%.

For the origin of these results see ChEMBL document CHEMBL3507680, “University of Dundee, Gates Library screen for HepG2 cell viability”.
